Like-named read-outs stand apart in the source and are kept apart here.
Experiments:
[1] = tested on: E-MRSA 15; test: Biofilm assay (Calgary Biofilm Device), MBEC; format: cell-based; conditions: E-MRSA 15 24 h biofilm, 24 h challenge
Description: (§1) Biofilms of each test organism were grown in the Calgary Biofilm Device (commercially available as the MBEC Assay™ for Physiology & Genetics, Innovotech Inc., Edmonton, Alberta, Canada). The device, a micro-titre plated based assay, consists of two parts; a microtitre plate containing the inoculated test medium and a polystyrene lid with 96 identical pegs on which the microbial biofilm forms under gyrorotary incubation. The biofilm assay was conducted according to the MBEC™ assay protocol as supplied by the manufacturer, with slight modifications. Inocula of each test organism were prepared in MHB as described above and adjusted to provide a final inoculum density of ˜10^7 CFU ml^−1 (as confirmed by viable count). 150 μl of the inoculated media was transferred to each well of the 96-well microtitre plate and the assay plate lid, bearing 96 pegs was placed into the microtitre plate. The MBEC assay plates were placed in a gyrorotary incubator (37° C., 95% relative humidity) for 24 h to permit growth and comparison of 24 h biofilms of each test strain. Positive and negative growth controls were included in each plate (6 replicates). Initial and 24 h planktonic viable counts were measured, as were 24 h biofilm counts, expressed as CFU peg^−1, according to manufacturers instructions. After 24 h, the peg lid of the MBEC assay plate was gently rinsed three times. After rinsing, the peg lid of the MBEC assay was transferred to a ‘challenge’ plate. Serial dilutions of each imidazolium salt were prepared in 200 μl of MHB containing various concentrations of IL in each well. Positive growth control and sterility control were included in each assay plate. […] Biofilms were dislodged into recovery media by sonication for 5 minutes and the peg lid discarded. The recovery plate is incubated overnight and visually checked after 24 h for turbidity. In addition, optical density measurements for each plate were recorded at 550 nm. Clear wells were taken as evidence of biofilm eradication and the MBEC value was assigned as the lowest concentration at which no growth was observed after 24 h incubation. Plates were incubated for a further 24 h to confirm biofilm eradication concentrations.

[2] = tested on: B. cereus; test: Biofilm assay (Calgary Biofilm Device), MBEC; format: cell-based; conditions: B. cereus 24 h biofilm, 24 h challenge
Description: as §1

[3] = tested on: S. aureus PIII; test: Biofilm assay (Calgary Biofilm Device), MBEC; format: cell-based; conditions: S. aureus PIII 24 h biofilm, 24 h challenge
Description: as §1

[4] = tested on: E. coli NCTC 8196; test: Biofilm assay (Calgary Biofilm Device), MBEC; format: cell-based; conditions: E. coli NCTC 8196 24 h biofilm, 24 h challenge
Description: as §1

[5] = tested on: K. aerogenes NCTC 7427; test: Biofilm assay (Calgary Biofilm Device), MBEC; format: cell-based; conditions: K. aerogenes NCTC 7427 24 h biofilm, 24 h challenge
Description: as §1

[6] = tested on: P. aeruginosa PA01; test: Biofilm assay (Calgary Biofilm Device), MBEC; format: cell-based; conditions: P. aeruginosa PA01 24 h biofilm, 24 h challenge
Description: as §1

[7] = tested on: C. tropicalis NCTC 7393; test: Biofilm assay (Calgary Biofilm Device), MBEC; format: cell-based; conditions: C. tropicalis NCTC 7393 24 h biofilm, 24 h challenge
Description: as §1

[8] = tested on: S. epidermidis ATCC 35984; test: Biofilm assay (Calgary Biofilm Device), MBEC; format: cell-based; conditions: for MBEC: S. epidermidis ATCC 35984 24 h biofilm, 24 h challenge
Description: as §1

[9] = tested on: P. mirabilis NCTC 12442; test: Biofilm assay (Calgary Biofilm Device), MBEC; format: cell-based; conditions: P. mirabilis NCTC 12442 24 h biofilm, 24 h challenge
Description: as §1

[10] = tested on: E-MRSA 15; test: Broth microdilution MIC/MBC; format: cell-based; conditions: for MBC: E-MRSA 15, 99.9% killing; for MIC: E-MRSA 15, 24 h at 37° C.
Description: (§2) Broth microdilution tests were performed according to NCCLS guidelines. Serial two-fold dilutions of each imidazolium salt (from an original working solution which had been 0.22 μm sterile filtered) in Mueller-Hinton Broth (MHB) (100 μl) were prepared in 96-well micro-titre plates over the range 0.0000625-1% w/v. The inoculum to be tested was prepared by adjusting the turbidity of an actively overnight growing broth culture in MHB to an optical density at 550 nm equivalent to 1×10^8 CFU/ml. The suspension was further diluted to provide a final inoculum density of 2×10^5 CFU/ml in MHB as verified by total viable count. The inoculum to be tested (100 μl, 2×10^5 CFU ml^−1) was added to each well of the microdilution trays which were incubated aerobically for 24 h at 37° C. Positive and negative growth controls were included in every assay (6 replicates). After determining the MICs, minimum bactericidal concentrations (MBCs) were determined by spreading 20 μl of suspension from wells showing no growth onto MHA plates, which were then incubated for 24 h and examined for 99.9% killing.

[11] = tested on: B. cereus; test: Broth microdilution MIC/MBC; format: cell-based; conditions: 24 h at 37° C.
Description: as §2

[12] = tested on: S. aureus ATCC 29213; test: Broth microdilution MIC/MBC; format: cell-based; conditions: for MBC: S. aureus ATCC 29213, 99.9% killing; for MIC: S. aureus ATCC 29213, 24 h at 37° C.
Description: as §2

[13] = tested on: E. coli NCTC 8196; test: Broth microdilution MIC/MBC; format: cell-based; conditions: for MBC: E. coli NCTC 8196, 99.9% killing; for MIC: E. coli NCTC 8196, 24 h at 37° C.
Description: as §2

[14] = tested on: K. aerogenes NCTC 7427; test: Broth microdilution MIC/MBC; format: cell-based; conditions: for MBC: K. aerogenes NCTC 7427, 99.9% killing; for MIC: K. aerogenes NCTC 7427, 24 h at 37° C.
Description: as §2

[15] = tested on: P. aeruginosa PA01; test: Broth microdilution MIC/MBC; format: cell-based; conditions: for MIC: P. aeruginosa PA01, 24 h at 37° C., read-out: MIC
Description: as §2

[16] = tested on: C. tropicalis NCTC 7393; test: Broth microdilution MIC/MBC; format: cell-based; conditions: for MBC: C. tropicalis NCTC 7393, 99.9% killing; for MIC: C. tropicalis NCTC 7393, 24 h at 37° C.
Description: as §2

[17] = tested on: S. epidermidis ATCC 35984; test: Broth microdilution MIC/MBC; format: cell-based; conditions: for MBC: S. epidermidis ATCC 35984, 99.9% killing; for MIC: S. epidermidis ATCC 35984, 24 h at 37° C.
Description: as §2

[18] = tested on: P. mirabilis NCTC 12442; test: Broth microdilution MIC/MBC; format: cell-based; conditions: for MIC: P. mirabilis NCTC 12442, 24 h at 37° C.
Description: as §2

[19] = tested on: S. epidermidis ATCC 12228; test: Broth microdilution MIC/MBC; format: cell-based; conditions: for MBC: S. epidermidis ATCC 12228, 99.9% killing; for MIC: S. epidermidis ATCC 12228, 24 h at 37° C.
Description: as §2

[20] = tested on: S. aureus PIII; test: Broth microdilution MIC; format: cell-based
Description: as §2

[21] = tested on: MRSA; test: Broth microdilution MIC/MBC; format: cell-based, methicillin-resistant S. aureus; conditions: for MIC: 24 h at 37° C.
Description: as §2

[22] = tested on: MRSA; test: Biofilm assay (Calgary Biofilm Device), MBEC; format: cell-based, methicillin-resistant S. aureus
Description: as §1

[23] = tested on: S. aureus ATCC 29213; test: Biofilm assay (Calgary Biofilm Device), MBEC; format: cell-based; conditions: S. aureus ATCC 29213 24 h biofilm, 24 h challenge
Description: as §1

[24] = tested on: E. coli PIII; test: Biofilm assay (Calgary Biofilm Device), MBEC; format: cell-based; conditions: E. coli PIII 24 h biofilm, 24 h challenge
Description: as §1

[25] = tested on: B. cenocepacia J2315; test: Biofilm assay (Calgary Biofilm Device), MBEC; format: cell-based; conditions: B. cenocepacia J2315 24 h biofilm, 24 h challenge
Description: as §1

[26] = tested on: B. cenocepacia J2315; test: Broth microdilution MIC/MBC; format: cell-based
Description: as §2

[27] = tested on: MRSA; test: Zone of inhibition on MRSA-seeded agar culture plates; format: cell-based, methicillin-resistant S. aureus; conditions: 40 μL of ionic liquid applied to MRSA-seeded agar culture plates
Excerpt: As used herein, CyMIMCI, refers to 1-alkyl-3-methyl-imidazolium chloride ionic liquids, wherein the alkyl group is a straight chain alkyl group having y carbon atoms.

[28] = tested on: E. coli PIII; test: Broth microdilution MIC; format: cell-based
Description: as §2

[29] = tested on: S. epidermidis ATCC 12228; test: Biofilm assay (Calgary Biofilm Device), MBEC; format: cell-based
Description: as §1

[30] = Pseudomonas aeruginosa, PA01, 24 h
[31] = Staphylococcus epidermidis, ATCC12228

MIC [10] [µM]	MIC [12] [µM]	MIC [13] [µM]	MIC [14] [µM]	MIC [16] [µM]	MIC [17] [µM]	MIC [18] [µM]	Structure (SMILES)	MBEC [1] [µM]	MBEC [2] [µM]	MBEC [5] [µM]	MBEC [6] [µM]	MBEC [7] [µM]	MBEC [8] [µM]	MBEC [9] [µM]	MBC [10] [µM]	MBC [12] [µM]	MBC [13] [µM]	MBC [14] [µM]	MBC [16] [µM]	MBC [17] [µM]	other results
35.12	70.24	35.12	35.12	35.12	35.12	70.24	CCCCCCCCCCCCCCCC[n+]1cccc2ccccc21.[Br-] [1-alkyl-3-quinolinium bromides 16]	1123.84	1123.84	561.92	1123.84	561.92	561.92	2247.68	70.24	70.24	70.24	35.12	70.24	35.12	MBEC [3]: 1123.84 µM; MBEC [4]: 561.92 µM; MIC [11]: 140.48 µM; MIC [15]: 70.24 µM; MBC [19]: 35.12 µM; MIC [19]: 35.12 µM; MIC [20]: 70.24 µM
722	722	722	1444	1444	722	1444	CCCCCCCCn1cc[n+](C)c1.[Cl-] [C8MIMCl]	2708		43331	21666	>43331	10833	43331	>1444	>1444	1444	>1444	>1444	1444	MBC ([21]; 99.9% killing): >1444 µM; MIC [21]: 1444 µM; MBEC ([22]; MRSA 24 h biofilm, 24 h challenge): 21666 µM; percent weight to volume of ionic liquid that corresponds to the MBEC value ([22]; MRSA biofilm): (0.5) % w/v; MBEC [23]: 2708 µM; MBEC [24]: 21666 µM; percent weight to volume of ionic liquid that corresponds to the MBEC value ([8]; S. epidermidis ATCC 35984 biofilm): (0.25) % w/v; MBEC [25]: 43331 µM; MBC ([15]; P. aeruginosa PA01, 99.9% killing): >1444 µM; MBC ([18]; P. mirabilis NCTC 12442, 99.9% killing): >1444 µM; MBC [19]: 1444 µM; MIC [19]: 361 µM; MBC ([26]; B. cenocepacia J2315, 99.9% killing): >1444 µM; MIC ([26]; B. cenocepacia J2315, 24 h at 37° C.): >1444 µM; Zone Of Inhibition Radius [27]: 12 mm; MIC [28]: 722 µM
							CCCCCCCCCCCCCC[n+]1cccc2cc(C)ccc21.[Br-] [IL3, N-tetradecyl-6-methylquinolinium bromide]														MIC ([21]; Staphylococcus aureus): 23.2 µM; MBEC [29]: 8.2 µM; MIC ([11]; Bacillus cereus): 2.9 µM; MIC ([13]; Escherichia coli, NCTC8196): 11.6 µM; MIC [15, 30]: 23.2 µM; MIC ([18]; Proteus mirabilis, NCTC12442): 92.9 µM; MIC [19, 31]: 8.2 µM
							CCCCCCCCCCCCCC[n+]1ccc2ccccc2c1.[Br-] [IL4, N-tetradecylisoquinolinium bromide]		7.9	63.4			31.5								MIC ([21]; Staphylococcus aureus): 24.1 µM; MBEC [23]: 126.9 µM; MBEC [29]: 31.7 µM; MIC ([11]; Bacillus cereus): 3 µM; MIC ([12]; Staphylococcus aureus, ATCC29213): 7.9 µM; MIC ([13]; Escherichia coli, NCTC8196): 24.1 µM; MIC ([14]; Klebsiella aerogenes, NCTC7427): 7.9 µM; MIC [15, 30]: 48.2 µM; MIC ([17]; Staphylococcus epidermidis, ATCC35984, 24 h): 7.9 µM; MIC ([18]; Proteus mirabilis, NCTC12442): 193 µM; MIC [19, 31]: 7.9 µM

From US20110144079A1, “ANTIMICROBIAL SYSTEM” (priority 2008, published 2011)
